One experiment has as its system phospholipase A2 (sPLA2). The note with it: statement referring to earlier patents and applications; cited from earlier work.
For another experiment, the system named is neuron. The note with it: cited from earlier work.
Experiment [1] concerns KA induced motor seizures in rats. In words: Kainic acid (KA) induced motor seizures in rats, graded by Racine scale. The arrangement: key to Max Seizure Stage: 1: hypoactivity, mouth and facial automatism; 2: head nodding and mastication; 3: forelimb clonus without rearing; 4: bilateral forelimb clonus and rearing; 5: rearing and loss of posture; Status epilepticus: stage 4-5 lasting for 30 min,. It counts as in vivo, rat. Here is the method:
Kainic acid (KA) was administered intraperitoneal (IP) to rats at doses ranging from […]. Rats age postnatal day (P) 12-15 were administered 2 mg/kg KA. Rats age P35-40 were administered 6 mg/kg KA. The KA was delivered in a constant volume of phosphate buffer (5 ml/kg) and reliably produced motor seizure activity.
Following IP administration of KA, rats were video-recorded for 3 hours, and then daily for 3 hours. The video recordings are later scored blind. The severity and latency of seizures is graded for P35 rats by a classical scale shown in Table 1 (Racine, 1972, Electroencephalog. Clin. Neurophysiol. 32:281-294).
Rats (250-300 g) are done in pairs and administered either a control peptide/vehicle or CHEC peptide in vehicle at various intervals pre- or post KA treatment. Control or CHEC peptide are administered either 4, 2 or 0.5 hours pre-KA or 0.25, and 0.5 hrs post-KA. The effects of CHEC-7 and CHEC-9 are compared because the peptides have different pharmakinetic profiles in rat.
Forty minutes prior to KA administration, the rats were administered either control peptide or CHEC-9 at the indicated dosages and routes of administration. The resulting motor seizures were graded as described elsewhere herein. […] In one set of experiments, rats were pre-fed lecithin or phosphatidylcholine prior to administering the KA.

Experiment [2] has as its system hippocampal neuronal activity in kainic acid-treated rats. The experiment is described as follows: Multiunit activity in CA1 cell field of hippocampus of kainic acid treated rats. It counts as in vivo, rat. Particulars: CHEC-9 1 mg/kg orally 40 min before KA 10 mg/kg IP. The text has this:
FIG. 1, is a graph depicting multiunit activity recorded from the CA1 cell field of the hippocampus of awake, freely moving kainic acid-treated rats that have been treated either with CHEC-9 or vehicle. Multiunit activity is presented as impulses recorded per second and provided as a percentage of baseline activity measured prior to seizure induction.
Rats were implanted with a multichannel electrode bundle placed in the CA1 cell field of the hippocampus one week prior to the experiment. Baseline hippocampal neuronal activity (impulses per second) was collected during a 30 minute control period. After 30 minutes of baseline neuronal activity was collected, either CHEC-9 (1 mg/kg) or vehicle was administered orally 40 min prior to IP administration of kainic acid (10 mg/kg). The duration of the KA administration varied. Neuronal activity in response to KA administration is presented as % of baseline activity (FIG. 1).

CHEASQC [CHEC-7]: in the experiment on phospholipase A2 (sPLA2), the “inhibition of phospholipase A2 / sPLA2” value is listed as “even more potent as a sPLA2 inhibitor than CHEC-9”.

For CAHAQAESC [CHEC-9 peptide variant], in the experiment on neuron, the neuron protective activity entry is “also has neuron protective activity”. Besides, the “inhibition of phospholipase A2 / sPLA2” value in the experiment with phospholipase A2 (sPLA2) is on record as “inhibit phospholipase A2”.

Regarding CHEASAAQC [CHEC-9], the “Max Seizure Stage” value in experiment [1] (individual rat, C9 0.5 mg/kg sc 40 min before KA 6 mg/kg ip) amounted to 2; in experiment [1] (individual rat, C9 1.0 mg/kg po 40 min before KA 5 mg/kg ip) it was 1; in experiment [1] (individual rats, C9 0.5 mg/kg sc 40 min before KA 5 mg/kg ip) it was 1; in experiment [1] (individual rats, C9 1.0 mg/kg po 40 min before KA 10 mg/kg ip, female rats) it was 3; in experiment [1] (individual rats, C9 1.0 mg/kg po 40 min before KA 10 mg/kg ip, male rats), 1. Besides, in experiment [1] (rats 250-300 g, peptide given 40 min before KA), the “likelihood of severe motor seizures versus vehicle control” value is “vehicle control were more likely to exhibit severe motor seizures than rats that were administered CHEC-9”. Moreover, in the experiment on phospholipase A2 (sPLA2), the “inhibition of phospholipase A2 / sPLA2” value is “inhibit phospholipase A2”. Moreover, in experiment [2] (vehicle rat reached status epilepticus), the “seizure symptoms by the end of the experiment” value is listed as “no obvious symptoms”. Further, in experiment [2] (versus vehicle), the “effect of KA on neuronal activity (multiunit activity, % of baseline)” value is reported as “much smaller effect of KA on neuronal activity”.

Source of the values: patent US9452195B2, “Use of CHEC peptides to treat neurological and cardiovascular diseases and disorders” (Drexel University, priority 2010, dated 2016).
